Reference: US20200163984A1, “USE OF ISOVALERYL SPIRAMYCIN I, II AND/OR III IN MANUFACTURING MEDICAMENT FOR TREATING AND/OR PREVENTING TUMOR, AND MEDICAMENT” (SHENYANG FUYANG PHARMACEUTICAL TECHNOLOGY CO., LTD., priority 2017, published 2020)
Where two headings read alike, the source gives them in different places.

Experiments:
Conditions in all cases: for Tumor Volume (mm3) (d 1): d1
[1] = system: transplanted tumor of human hepatoma cell HepG-2; experiment: HepG-2 transplanted tumor in nude mice
Procedure: (§1) Then cell concentration was adjusted to 1×10^7/ml with matrigel, then each nude mouse was inoculated subcutaneously with 0.2 ml of cells at its right armpit and recorded as the first day of inoculation. When the tumor grows to be greater than or equal to 100 mm^3, the mice were randomly divided into 11 groups with 6 mice in each group: a model group, a cyclophosphamide group, isovaleryl spiramycin I groups with doses of 25, 50 and 100 mg/kg, isovaleryl spiramycin II groups with doses of 25, 50 and 100 mg/kg, and isovaleryl spiramycin III groups with doses of 25, 50 and 100 mg/kg. Each group was continuously administered intragastrically for 30 days with a dose of 20 ml/kg. The mice were sacrificed the next day after drug withdrawal and the indicators were tested. The long diameter and short diameter of the tumor, and the body weight of each mouse were recorded every 3 days from drug administration to nude mouse sacrifice.
(§2) The body weight of the nude mice and the long diameter (a) and short diameter (b) of the transplanted tumor were measured every 3 days, and the tumor volume (v), relative tumor volume (RTV) and relative tumor proliferation rate (T/C) are calculated respectively according to the following formulas, wherein V=a×b^2/2; RTV=V/V0 (V0 is the tumor volume before administration, V is the tumor volume before sacrifice), and T/C (%)=treatment group RTV/model control group RTV×100%.
(§3) Each mouse was weighed and sacrificed. After the tumor was completely stripped off from the body of the mouse, the non-tumor tissues such as blood stains and fat were removed to weigh the tumor and calculate the tumor growth inhibition rate. The average tumor weight of each group of mice is used as an indicator of efficacy. Tumor growth inhibition rate (%)=(1−the average tumor weight of the treatment group/the average tumor weight of the model group)×100%.

[2] = system: transplanted tumor of human glioblastoma cell A172
Procedure: as §1, with “temozolomide” for “cyclophosphamide”, “[…], […], […]” for “isovaleryl spiramycin I groups with doses of 25, 50 and 100 mg/kg, isovaleryl spiramycin II groups with doses of 25, 50 and 100 mg/kg, and isovaleryl spiramycin III groups with doses of 25, 50 and 100 mg/kg.”
as §2, §3

[3] = system: transplanted tumor of human cervical cancer cell HeLa; experiment: HeLa transplanted tumor in nude mice
Procedure: as §1, with “HeLa cells in a logarithmic growth phase were taken and subjected to a trypan blue exclusion experiment showing that the cell viability was more than 95%, then the cells were subjected to trypsinization, centrifugation, and supernatant removal. Then” for “Then”
as §2, §3

[4] = HepG-2, high dose (100 mg/kg in method) i.g. 30 days
[5] = HepG-2, low dose (25 mg/kg in method) i.g. 30 days
[6] = HepG-2, medium dose (50 mg/kg in method) i.g. 30 days
[7] = A172, high dose (100 mg/kg in method) i.g. 30 days
[8] = A172, low dose (25 mg/kg in method) i.g. 30 days
[9] = A172, medium dose (50 mg/kg in method) i.g. 30 days
[10] = HeLa, high dose (100 mg/kg in method) i.g. 30 days
[11] = HeLa, low dose (25 mg/kg in method) i.g. 30 days
[12] = HeLa, medium dose (50 mg/kg in method) i.g. 30 days

mouse weight compared with the model group ([1]; mouse, in vivo): no significant changes | mouse weight compared with the model group ([2]; mouse, in vivo): no significant changes | mouse weight compared with the model group ([3]; mouse, in vivo): no significant changes
SMILES: COC1C(OC(C)=O)CC(=O)OC(C)CC=CC=CC(OC2CCC(N(C)C)C(C)O2)C(C)CC(CC=O)C1OC1OC(C)C(OC2CC(C)(O)C(OC(=O)CC(C)C)C(C)O2)C(N(C)C)C1O (stereo not drawn) [Isovaleryl spiramycin II, isovaleryl spiramycin II]
Relative Tumor Proliferation Rate (T/C) [1, 4]: 39.31% | tumor growth inhibition rate [1, 4]: 61.56% | Relative Tumor Proliferation Rate (T/C) [1, 5]: 81.03% | tumor growth inhibition rate [1, 5]: 21.07% | tumor volume and relative tumor volume compared with the model group ([1]; HepG-2, low, medium and high doses, P<0.05): significantly lower | Relative Tumor Proliferation Rate (T/C) [1, 6]: 57.02% | tumor growth inhibition rate [1, 6]: 31.43% | Inhibition Rate (%) ([1]; HepG-2 nude mice, 25 mg/kg): 21.07% | Relative Tumor Proliferation Rate (T/C) ([1]; HepG-2 nude mice, 25 mg/kg): 81.03% | Relative Tumor Volume (RTV) ([1]; HepG-2 nude mice, 25 mg/kg): 13.57 ± 1.64 | Tumor Weight ([1]; HepG-2 nude mice, 25 mg/kg): 1.92 ± 0.32 g | Tumor Volume (mm3) (d 1) ([1]; HepG-2 nude mice, 25 mg/kg): 122.82 ± 4.10 mm3 | Tumor Volume (mm3) (d30) ([1]; HepG-2 nude mice, 25 mg/kg): 1666.11 ± 202.07 mm3 | Inhibition Rate (%) ([1]; HepG-2 nude mice, 50 mg/kg): 31.43% | Relative Tumor Proliferation Rate (T/C) ([1]; HepG-2 nude mice, 50 mg/kg): 57.02% | Relative Tumor Volume (RTV) ([1]; HepG-2 nude mice, 50 mg/kg): 9.55 ± 2.84 | Tumor Weight ([1]; HepG-2 nude mice, 50 mg/kg): 1.67 ± 0.32 g | Tumor Volume (mm3) (d 1) ([1]; HepG-2 nude mice, 50 mg/kg): 118.60 ± 4.30 mm3 | Tumor Volume (mm3) (d30) ([1]; HepG-2 nude mice, 50 mg/kg): 1127.90 ± 319.12 mm3 | Inhibition Rate (%) ([1]; HepG-2 nude mice, 100 mg/kg): 61.56% | Relative Tumor Proliferation Rate (T/C) ([1]; HepG-2 nude mice, 100 mg/kg): 39.31% | Relative Tumor Volume (RTV) ([1]; HepG-2 nude mice, 100 mg/kg): 6.58 ± 2.48 | Tumor Weight ([1]; HepG-2 nude mice, 100 mg/kg): 0.93 ± 0.41 g | Tumor Volume (mm3) (d 1) ([1]; HepG-2 nude mice, 100 mg/kg): 118.70 ± 7.20 mm3 | Tumor Volume (mm3) (d30) ([1]; HepG-2 nude mice, 100 mg/kg): 783.73 ± 312.41 mm3 | Body Weight (g) (d1) ([1]; mouse, in vivo, 25 mg/kg): 21.98 ± 1.74 g | Body Weight (g) (d30) ([1]; mouse, in vivo, 25 mg/kg): 23.35 ± 1.83 g | Body Weight (g) (d1) ([1]; mouse, in vivo, 50 mg/kg): 20.75 ± 1.86 g | Body Weight (g) (d30) ([1]; mouse, in vivo, 50 mg/kg): 22.22 ± 1.62 g | Body Weight (g) (d1) ([1]; mouse, in vivo, 100 mg/kg): 21.48 ± 1.98 g | Body Weight (g) (d30) ([1]; mouse, in vivo, 100 mg/kg): 22.45 ± 1.28 g | Relative Tumor Proliferation Rate (T/C) [2, 7]: 42.18% | tumor growth inhibition rate [2, 7]: 40.01% | Relative Tumor Proliferation Rate (T/C) [2, 8]: 74.24% | tumor growth inhibition rate [2, 8]: 10.85% | tumor volume and relative tumor volume compared with the model group ([2]; A172, low, medium and high doses, P<0.05): significantly lower | Relative Tumor Proliferation Rate (T/C) [2, 9]: 50.59% | tumor growth inhibition rate [2, 9]: 15.71% | Inhibition Rate (%) ([2]; A172 nude mice, 12.5 mg/kg): 10.85% | Relative Tumor Proliferation Rate (T/C) ([2]; A172 nude mice, 12.5 mg/kg): 74.24% | Relative Tumor Volume (RTV) ([2]; A172 nude mice, 12.5 mg/kg): 14.73 ± 1.33 | Tumor Weight ([2]; A172 nude mice, 12.5 mg/kg): 1.24 ± 0.12 g | Tumor Volume (mm3) (d 1) ([2]; A172 nude mice, 12.5 mg/kg): 123.39 ± 11.22 mm3 | Tumor Volume (mm3) (d30) ([2]; A172 nude mice, 12.5 mg/kg): 1525.41 ± 255.74 mm3 | Inhibition Rate (%) ([2]; A172 nude mice, 25 mg/kg): 15.71% | Relative Tumor Proliferation Rate (T/C) ([2]; A172 nude mice, 25 mg/kg): 50.59% | Relative Tumor Volume (RTV) ([2]; A172 nude mice, 25 mg/kg): 14.31 ± 0.98 | Tumor Weight ([2]; A172 nude mice, 25 mg/kg): 1.17 ± 0.10 g | Tumor Volume (mm3) (d 1) ([2]; A172 nude mice, 25 mg/kg): 115.96 ± 11.42 mm3 | Tumor Volume (mm3) (d30) ([2]; A172 nude mice, 25 mg/kg): 984.26 ± 197.97 mm3 | Inhibition Rate (%) ([2]; A172 nude mice, 50 mg/kg): 40.01% | Relative Tumor Proliferation Rate (T/C) ([2]; A172 nude mice, 50 mg/kg): 42.18% | Relative Tumor Volume (RTV) ([2]; A172 nude mice, 50 mg/kg): 12.88 ± 1.54 | Tumor Weight ([2]; A172 nude mice, 50 mg/kg): 0.84 ± 0.12 g | Tumor Volume (mm3) (d 1) ([2]; A172 nude mice, 50 mg/kg): 120.28 ± 10.53 mm3 | Tumor Volume (mm3) (d30) ([2]; A172 nude mice, 50 mg/kg): 851.14 ± 215.31 mm3 | Body Weight (g) (d1) ([2]; mouse, in vivo, 12.5 mg/kg): 21.36 ± 0.67 g | Body Weight (g) (d30) ([2]; mouse, in vivo, 12.5 mg/kg): 21.36 ± 0.87 g | Body Weight (g) (d1) ([2]; mouse, in vivo, 25 mg/kg): 21.10 ± 0.62 g | Body Weight (g) (d30) ([2]; mouse, in vivo, 25 mg/kg): 21.30 ± 0.89 g | Body Weight (g) (d1) ([2]; mouse, in vivo, 50 mg/kg): 21.08 ± 0.74 g | Body Weight (g) (d30) ([2]; mouse, in vivo, 50 mg/kg): 20.97 ± 0.68 g | Inhibition Rate (%) ([3]; HeLa nude mice, 12.5 mg/kg): 30.67% | Relative Tumor Proliferation Rate (T/C) ([3]; HeLa nude mice, 12.5 mg/kg): 68.55% | Relative Tumor Volume (RTV) ([3]; HeLa nude mice, 12.5 mg/kg): 11.36 ± 2.90 | Tumor Weight ([3]; HeLa nude mice, 12.5 mg/kg): 1.34 ± 0.60 g | Tumor Volume (mm3) (d 1) ([3]; HeLa nude mice, 12.5 mg/kg): 115.41 ± 23.27 mm3 | Tumor Volume (mm3) (d30) ([3]; HeLa nude mice, 12.5 mg/kg): 1301.28 ± 391.77 mm3 | Inhibition Rate (%) ([3]; HeLa nude mice, 25 mg/kg): 42.90% | Relative Tumor Proliferation Rate (T/C) ([3]; HeLa nude mice, 25 mg/kg): 56.07% | Relative Tumor Volume (RTV) ([3]; HeLa nude mice, 25 mg/kg): 9.30 ± 1.74 | Tumor Weight ([3]; HeLa nude mice, 25 mg/kg): 1.10 ± 0.62 g | Tumor Volume (mm3) (d 1) ([3]; HeLa nude mice, 25 mg/kg): 125.04 ± 20.71 mm3 | Tumor Volume (mm3) (d30) ([3]; HeLa nude mice, 25 mg/kg): 1184.42 ± 369.49 mm3 | Inhibition Rate (%) ([3]; HeLa nude mice, 50 mg/kg): 43.30% | Relative Tumor Proliferation Rate (T/C) ([3]; HeLa nude mice, 50 mg/kg): 45.96% | Relative Tumor Volume (RTV) ([3]; HeLa nude mice, 50 mg/kg): 7.62 ± 0.85 | Tumor Weight ([3]; HeLa nude mice, 50 mg/kg): 1.10 ± 0.61 g | Tumor Volume (mm3) (d 1) ([3]; HeLa nude mice, 50 mg/kg): 111.84 ± 4.83 mm3 | Tumor Volume (mm3) (d30) ([3]; HeLa nude mice, 50 mg/kg): 851.58 ± 93.66 mm3 | Relative Tumor Proliferation Rate (T/C) [3, 10]: 43.30% | tumor growth inhibition rate [3, 10]: 43.30% | Relative Tumor Proliferation Rate (T/C) [3, 11]: 30.67% | tumor growth inhibition rate [3, 11]: 30.67% | tumor volume and relative tumor volume compared with the model group ([3]; HeLa, low, medium and high doses, P<0.05): significantly lower | Relative Tumor Proliferation Rate (T/C) [3, 12]: 42.90% | tumor growth inhibition rate [3, 12]: 42.90% | Body Weight (g) (d1) ([3]; mouse, in vivo, 12.5 mg/kg): 20.92 ± 0.46 g | Body Weight (g) (d30) ([3]; mouse, in vivo, 12.5 mg/kg): 21.16 ± 0.51 g | Body Weight (g) (d1) ([3]; mouse, in vivo, 25 mg/kg): 20.87 ± 0.34 g | Body Weight (g) (d30) ([3]; mouse, in vivo, 25 mg/kg): 21.25 ± 0.55 g | Body Weight (g) (d1) ([3]; mouse, in vivo, 50 mg/kg): 20.77 ± 0.43 g | Body Weight (g) (d30) ([3]; mouse, in vivo, 50 mg/kg): 21.09 ± 0.36 g
